Source: US11197862B2, “Methods of preventing toxicity of platinum drugs” (XOMICS BIOPHARMA, INC., priority 2015, dated 2021)
Like-named read-outs stand apart in the source and are kept apart here. One block for each compound: values may come before it.

Experiments:
[1] = system: Balb/c mice exposed to acute treatment with Oxaliplatin; test: Dynamic test (mechanical pain threshold) after a single oxaliplatin administration; type: in vivo, mouse; settings: 24 hours after single OXA 3.5 mg/kg iv; DTG 4 mg/kg ip 1 hour before; CPC 4 mg/kg iv co-administered; listed as CPC
Procedure: OXA vehicle, OXA, CPC, DTG, DTG+OXA and CPC+OXA were administered once time. In the group co-administered with OXA and DTG. DTG was injected intraperitoneally 1 hour before the administration of OXA. In the group co-administered with OXA and CPC, CPC was co-administered with OXA intravenously. Mechanical allodynia and cold sensory threshold (dynamic test and cold plate test) were performed 24 and 48 hours after the treatment, respectively, using the methods described in EXAMPLE 15 Plasma Sample Collection

[2] = molecular target: T1, OCT2 (Homo sapiens, UniProt O15244)
T1 sequence (O15244 1-555): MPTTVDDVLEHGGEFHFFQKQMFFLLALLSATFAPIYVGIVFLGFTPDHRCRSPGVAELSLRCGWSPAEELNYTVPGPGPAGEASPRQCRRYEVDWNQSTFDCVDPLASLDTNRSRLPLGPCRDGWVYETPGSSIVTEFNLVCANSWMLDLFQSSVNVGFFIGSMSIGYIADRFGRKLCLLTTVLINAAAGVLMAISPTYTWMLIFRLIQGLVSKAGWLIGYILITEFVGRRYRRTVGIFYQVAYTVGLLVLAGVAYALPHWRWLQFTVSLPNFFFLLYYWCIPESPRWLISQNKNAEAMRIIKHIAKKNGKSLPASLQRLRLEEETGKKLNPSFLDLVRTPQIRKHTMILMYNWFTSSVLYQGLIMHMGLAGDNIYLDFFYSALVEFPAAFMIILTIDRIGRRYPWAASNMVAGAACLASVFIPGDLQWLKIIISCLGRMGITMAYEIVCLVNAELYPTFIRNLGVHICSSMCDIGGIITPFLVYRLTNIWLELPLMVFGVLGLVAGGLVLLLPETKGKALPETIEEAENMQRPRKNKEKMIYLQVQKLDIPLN

[3] = molecular target: T1, OCT2; test: Inhibition of OCT2-mediated oxaliplatin uptake in transfected MDCK-II cells (protein-free HBSS); settings: for inhibition at 30 min, 5 μM / inhibition at 30 min, 50 μM / potency estimated from few doses at 30 min: human
Text: Fully confluent MDCK cell monolayers were transfected with either cDNA plasmids encoding the human transporter to be tested or a GFP control. […] The cells were then washed with ice-cold PBS and lysed with 50:50 acetonitrile:H2O. Intracellular content of the substrate was quantified by LC/MS/MS or a MicroBeta radiometric plate reader.

[4] = molecular target: T1, OCT2; test: Inhibition of OCT2-mediated metformin uptake in transfected MDCK-II cells
[5] = cited from earlier work
[6] = molecular target: T1, OCT2; test: Inhibition of OCT2-mediated oxaliplatin transport in 100% human serum or HBSS containing 4% BSA (IC50,app); settings: for transporter preference in inhibiting oxaliplatin transport: serum or 4% BSA
[7] = molecular target: T1, OCT2; test: Inhibition of OCT2-mediated ASP+ uptake (Kido et al., Giacomini group); settings: human, cell line expressing human OCT2 (cell line not given), probe ASP+ 5 μM
[8] = human, in vivo
[9] = system: HepG2 cells; test: Anti-proliferation study (SRB assay) in HepG2 cells; settings: FIG. 10
Procedure: (§1) The potency was determined by the sulforhodamine B (SRB) assay in 96-well plates. […] Seeding density was 3000 cells/well for both cell lines.

[10] = molecular target: T1, OCT2; settings: cited from earlier work
[11] = system: MDCK cells expressing OCT2, MATE1 and MATE2K; test: LDH cytotoxicity of oxaliplatin in MDCK-II triple-transporter model; settings: for effect on oxaliplatin induced cytotoxicity in OCT2 expressing cells: buflomedil 3 and 6 μM, dolutegravir 10 μM, erlotinib 6 μM, cimetidine 6 μM, FIG. 6
Procedure: A triple-transporter model for OCT2(SLC22A2), MATE1(SLC47A1), and MATE2-K(SLC47A2) was created by transfecting fully confluent MDCK-II cell monolayers with DNA mixture containing the plasmids encoding OCT2, MATE1, and MATE-2K at concentrations of 40, 15, and 5 ng/μl, respectively. The OCT2 was expressed on the basolateral cell membrane, and MATE1 and MATE2-K were expressed on the apical side of the cells. […] The apical medium was adjusted to pH 6.7 with 25 mM of 2-(N-morpholino) ethanesulfonic acid (MES).
After removal of the media, a drug-free medium was added in both sides. After incubation 24 hours, the medium was collected, and the lactate dehydrogenase (LDH) activity in the medium was measured using an LDH cytotoxicity assay kit (G-Biosciences. St. Louis, Mo.; or Biochain, Newark, Calif.), according to the manufacturers' instructions. Cytotoxicity was evaluated by measuring the LDH activity in the medium.
Cytotoxicity was tested using the same procedure described above.

[12] = molecular target: T1, OCT2; test: in vitro
[13] = molecular target: T1, OCT2; test: in vitro; remark: listed apart in the source
[14] = system: cells co-expressing OCT2 and MATE1; test: Intracellular oxaliplatin content in cells co-expressing OCT2 and MATE1; type: cell-based; settings: oxaliplatin 100 μM in 4% BSA HBSS, 90 min
Text: In most naturally occurring cells, uptake transporters co-exist with efflux transporters. It is the interplay between the uptake and efflux transporters that determines the net intracellular accumulation of a substrate. One example is in the proximal tubule epithelial cells in the kidney, where the basolaterally expressed transporters, mainly OCT2, work in concert with the apically expressed MATE1 and MATE2K [5]. […] Cells with single expression of OCT2 or GFP mock were also used as a control.

[15] = system: HT-29 cells; test: Anti-proliferation study (SRB assay) in HT-29 cells; settings: co-treatment; FIG. 11
Procedure: as §1

[16] = Published clinical pharmacokinetic data; settings: from published Cmax and protein binding
[17] = IC50 (μM) (substrate Oxaliplatin)
[18] = MDCK-II cells transfected with human OCT2, probe oxaliplatin 10 μM

IC50 (μM) (substrate Metformin) [2]: no
fold less potent as inhibitor of OCT2-mediated metformin and oxaliplatin uptake than of ASP+ uptake ([3]; comparison of Table 1 potencies): more than 100 fold
inhibition at 30 min, 5 μM [3]: 28%
inhibition at 30 min, 50 μM [3]: 36%
potency estimated from few doses at 30 min [3, 17]: 90.4 µM
SMILES: NC(=O)OCC(O)COc1ccc(Cl)cc1 (stereo not drawn) [Chlorphenesin Carbamate]
Mechanical Pain Threshold (MPT), mechanical hypersensitivity [1]: no such effect

IC50 [4]: 57.6 ± 6.9 µM
IC50 ([6]; IC50,app (μM), apparent inhibition constant in 100% human serum or HBSS containing 4% BSA, OCT2-mediated oxaliplatin uptake): 36.8 µM
IC50 ([6]; OCT2 IC50, app (μM), 100% human serum or HBSS containing 4% BSA, 20 μM or 100 μM oxaliplatin): 36.8 ± 13.6 µM
potency estimated from few doses [7]: 26.4 µM
Plasma peak unbound concentration Cmax,u [8]: 9.60 µM
IC50 [3]: 9.71 µM
inhibition at 30 min, 5 μM [3]: 34%
inhibition at 30 min, 50 μM [3]: 83%
potency estimated from few doses at 30 min [3, 17]: 9.7 µM
SMILES: CN/C(=N/CCSCc1nc[nH]c1C)NC#N [Cimetidine]
Plasma protein binding (%) ([5]; published data): 20%
transporter preference in inhibiting oxaliplatin transport [6]: even more preference towards inhibiting oxaliplatin transport through MATE1
effect on anti-tumor potency of oxaliplatin in HepG2 [9]: nor cimetidine
Inhibition % @ 20 μM (substrate ASP+) ([10]; OCT2-mediated uptake, ASP+ 5 μM in HBSS, from Kido Y et al. J Med Chem 2011): 43%
effect on oxaliplatin induced cytotoxicity in OCT2 expressing cells [11]: did not reduce oxaliplatin cytotoxicity

SMILES: CCNC(=O)[C@@H]1CCCN1C(=O)[C@H](CCCNC(=N)N)NC(=O)[C@H](CC(C)C)NC(=O)[C@@H](CC(C)C)NC(=O)[C@H](Cc1ccc(O)cc1)NC(=O)[C@H](CO)NC(=O)[C@H](Cc1c[nH]c2ccccc12)NC(=O)[C@H](Cc1c[nH]cn1)NC(=O)[C@@H]1CCC(=O)N1 [Leuprolide]
IC50 [4]: 3.62 µM
inhibition at 5 min, 5 μM [12]: 58%
inhibition at 5 min, 50 μM [12]: 91%
Cmax ([5]; human, in vivo): 0.017 µM
Plasma protein binding (%) ([5]; human, in vivo): 46%
Plasma peak unbound concentration Cmax,u [8]: 0.01 µM
IC50 [3]: 1.57 µM
inhibition at 30 min, 5 μM [3]: 76%
inhibition at 30 min, 50 μM [3]: 97%
potency estimated from few doses at 30 min [3]: 1.57 µM
Inhibition % @ 20 μM (substrate ASP+) ([10]; human, 20 μM): 88%
potency estimated from few doses [13]: 2800 nM

SMILES: C#Cc1cccc(Nc2ncnc3cc(OCCOC)c(OCCOC)cc23)c1 [Erlotinib]
cellular accumulation of oxaliplatin in cells co-expressing OCT2 and MATE1 [14]: reduced cellular accumulation of oxaliplatin
Mean Cmax ([5]; 150 mg po, day 24): 2.12 µg/mL
Mean T1/2 ([5]; 150 mg po, day 24): 18.2 h
Mean Cmax ([5]; 150 mg po, single dose): 1.14 µg/mL
Mean T1/2 ([5]; 150 mg po, single dose): 20 h
Plasma protein binding (%) ([5]; published data): 93%
Cmax ([5]; read-out: Mean Cmax, 150 mg po, day 24): 5.4 µM
Cmax ([5]; read-out: Mean Cmax, 150 mg po, single dose): 2.9 µM
Cmax ([5]; read-out: Plasma peak total concentration Cmax, published clinical pharmacokinetic data): 5.4 µM
transporter preference in inhibiting oxaliplatin transport [6]: potent in suppressing OCT1 as well as OCT2
inhibition at 30 min, 5 μM [3, 18]: 93%
inhibition at 30 min, 50 μM [3, 18]: 106%
cytotoxicity of the inhibitor itself ([11]; 6 μM, without oxaliplatin, FIG. 6B): showed cytotoxicity itself without adding oxaliplatin
effect on oxaliplatin induced cytotoxicity in OCT2 expressing cells [11]: its EC50 value could not be obtained due to an ambiguous fitting
effect on cisplatin anti-proliferation potency in HT-29 [15]: ignorable impact on cisplatin cytotoxicity
Plasma peak unbound concentration Cmax,u [16]: 0.38 µM
